Assay results from paper PMC3961306, “Comparison of the Cancer Gene Targeting and Biochemical Selectivities of All Targeted Kinase Inhibitors Approved for Clinical Use” (PLoS ONE, 2014).

Tests used:
Assay in all cases: Kinase profiling in a biochemical assay panel (mobility shift assays and ELISA), %-inhibition at 1 μM; selectivity entropy
[1] = target: panel of more than 300 wild-type and mutant kinases (313 kinase panel) (Homo sapiens, UniProt Q02779); conditions: kinase MLK2; 1 μM
[2] = target: panel of more than 300 wild-type and mutant kinases (313 kinase panel) (Homo sapiens, UniProt P53667); conditions: kinase LIMK1; compound at 1 μM
[3] = target: panel of more than 300 wild-type and mutant kinases (313 kinase panel) (Homo sapiens, UniProt Q9H1R3); conditions: kinase skMLCK; 1 μM
[4] = target: T1, panel of more than 300 wild-type and mutant kinases (313 kinase panel) (Homo sapiens, UniProt Q16832); conditions: kinase DDR2; compound at 1 μM
T1 sequence (Q16832 22-855): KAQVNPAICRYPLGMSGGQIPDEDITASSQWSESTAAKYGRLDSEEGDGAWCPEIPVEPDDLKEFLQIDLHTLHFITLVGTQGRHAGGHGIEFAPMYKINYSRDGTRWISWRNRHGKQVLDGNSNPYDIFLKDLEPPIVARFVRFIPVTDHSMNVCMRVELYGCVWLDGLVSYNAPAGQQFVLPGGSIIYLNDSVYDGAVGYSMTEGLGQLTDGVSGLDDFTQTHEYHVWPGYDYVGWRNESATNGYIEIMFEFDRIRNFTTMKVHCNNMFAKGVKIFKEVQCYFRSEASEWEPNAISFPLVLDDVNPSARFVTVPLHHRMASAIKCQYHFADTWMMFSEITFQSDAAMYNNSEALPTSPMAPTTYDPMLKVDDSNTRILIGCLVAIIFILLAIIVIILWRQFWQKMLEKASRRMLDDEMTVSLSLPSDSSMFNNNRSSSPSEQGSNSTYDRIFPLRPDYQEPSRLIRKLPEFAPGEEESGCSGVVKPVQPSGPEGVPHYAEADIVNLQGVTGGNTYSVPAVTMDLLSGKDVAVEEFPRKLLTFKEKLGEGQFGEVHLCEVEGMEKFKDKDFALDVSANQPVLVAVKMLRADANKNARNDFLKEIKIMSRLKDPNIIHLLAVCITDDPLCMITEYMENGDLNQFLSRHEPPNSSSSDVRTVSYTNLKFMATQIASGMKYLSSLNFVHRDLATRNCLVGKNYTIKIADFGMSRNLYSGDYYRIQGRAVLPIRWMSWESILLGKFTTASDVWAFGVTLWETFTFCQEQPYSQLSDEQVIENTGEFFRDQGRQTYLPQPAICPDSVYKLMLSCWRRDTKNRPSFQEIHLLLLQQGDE

[5] = target: panel of more than 300 wild-type and mutant kinases (313 kinase panel) (Homo sapiens, UniProt Q86Z02); conditions: kinase HIPK1; compound at 1 μM
[6] = target: panel of more than 300 wild-type and mutant kinases (313 kinase panel) (Homo sapiens, UniProt Q16816); conditions: kinase PHKG1; 1 μM
[7] = target: panel of more than 300 wild-type and mutant kinases (313 kinase panel) (Homo sapiens, UniProt Q15418); conditions: kinase RSK1; 1 μM
[8] = target: T2, panel of more than 300 wild-type and mutant kinases (313 kinase panel) (Homo sapiens, UniProt P54760); conditions: kinase EPHB4; compound at 1 μM
T2 sequence (P54760 16-987): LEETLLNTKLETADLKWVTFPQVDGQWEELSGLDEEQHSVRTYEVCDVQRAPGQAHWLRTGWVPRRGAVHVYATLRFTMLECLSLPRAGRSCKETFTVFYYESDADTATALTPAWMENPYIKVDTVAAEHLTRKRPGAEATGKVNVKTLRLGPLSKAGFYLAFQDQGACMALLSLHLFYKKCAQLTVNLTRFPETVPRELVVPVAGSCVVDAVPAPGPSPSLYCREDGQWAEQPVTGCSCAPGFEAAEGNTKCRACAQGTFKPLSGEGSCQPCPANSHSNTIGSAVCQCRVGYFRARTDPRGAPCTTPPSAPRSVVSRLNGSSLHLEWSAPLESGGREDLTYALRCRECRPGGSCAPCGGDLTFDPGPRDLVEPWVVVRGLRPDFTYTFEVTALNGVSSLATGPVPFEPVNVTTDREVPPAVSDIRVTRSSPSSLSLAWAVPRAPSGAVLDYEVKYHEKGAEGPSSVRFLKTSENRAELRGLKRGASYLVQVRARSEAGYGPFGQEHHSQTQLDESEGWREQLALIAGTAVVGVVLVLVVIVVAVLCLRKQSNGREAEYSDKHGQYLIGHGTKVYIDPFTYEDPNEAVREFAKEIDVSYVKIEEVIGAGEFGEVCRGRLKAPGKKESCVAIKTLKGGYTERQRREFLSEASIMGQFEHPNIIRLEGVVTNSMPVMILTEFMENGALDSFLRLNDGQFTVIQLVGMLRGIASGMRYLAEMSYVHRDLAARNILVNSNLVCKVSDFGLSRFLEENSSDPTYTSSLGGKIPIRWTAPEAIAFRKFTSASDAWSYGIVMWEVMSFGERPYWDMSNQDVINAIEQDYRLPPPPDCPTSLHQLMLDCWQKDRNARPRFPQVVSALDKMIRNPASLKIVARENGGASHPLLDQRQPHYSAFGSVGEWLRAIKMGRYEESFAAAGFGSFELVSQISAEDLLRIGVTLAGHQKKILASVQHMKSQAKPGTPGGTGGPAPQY

Sequence of panel of more than 300 wild-type and mutant kinases (313 kinase panel) (Homo sapiens, UniProt Q16816) (Q16816 whole entry, change not shown): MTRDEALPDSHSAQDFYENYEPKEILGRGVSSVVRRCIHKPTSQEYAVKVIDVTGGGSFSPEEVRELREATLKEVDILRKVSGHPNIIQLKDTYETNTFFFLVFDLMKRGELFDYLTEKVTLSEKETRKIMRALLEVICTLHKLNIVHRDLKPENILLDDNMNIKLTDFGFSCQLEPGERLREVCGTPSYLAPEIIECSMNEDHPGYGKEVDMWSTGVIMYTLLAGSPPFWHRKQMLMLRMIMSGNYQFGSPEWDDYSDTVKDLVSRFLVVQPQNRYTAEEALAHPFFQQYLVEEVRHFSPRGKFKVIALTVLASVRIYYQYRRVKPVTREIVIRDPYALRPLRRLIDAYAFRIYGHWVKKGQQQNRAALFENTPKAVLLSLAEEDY
Sequence of panel of more than 300 wild-type and mutant kinases (313 kinase panel) (Homo sapiens, UniProt Q02779) (Q02779 whole entry, change not shown): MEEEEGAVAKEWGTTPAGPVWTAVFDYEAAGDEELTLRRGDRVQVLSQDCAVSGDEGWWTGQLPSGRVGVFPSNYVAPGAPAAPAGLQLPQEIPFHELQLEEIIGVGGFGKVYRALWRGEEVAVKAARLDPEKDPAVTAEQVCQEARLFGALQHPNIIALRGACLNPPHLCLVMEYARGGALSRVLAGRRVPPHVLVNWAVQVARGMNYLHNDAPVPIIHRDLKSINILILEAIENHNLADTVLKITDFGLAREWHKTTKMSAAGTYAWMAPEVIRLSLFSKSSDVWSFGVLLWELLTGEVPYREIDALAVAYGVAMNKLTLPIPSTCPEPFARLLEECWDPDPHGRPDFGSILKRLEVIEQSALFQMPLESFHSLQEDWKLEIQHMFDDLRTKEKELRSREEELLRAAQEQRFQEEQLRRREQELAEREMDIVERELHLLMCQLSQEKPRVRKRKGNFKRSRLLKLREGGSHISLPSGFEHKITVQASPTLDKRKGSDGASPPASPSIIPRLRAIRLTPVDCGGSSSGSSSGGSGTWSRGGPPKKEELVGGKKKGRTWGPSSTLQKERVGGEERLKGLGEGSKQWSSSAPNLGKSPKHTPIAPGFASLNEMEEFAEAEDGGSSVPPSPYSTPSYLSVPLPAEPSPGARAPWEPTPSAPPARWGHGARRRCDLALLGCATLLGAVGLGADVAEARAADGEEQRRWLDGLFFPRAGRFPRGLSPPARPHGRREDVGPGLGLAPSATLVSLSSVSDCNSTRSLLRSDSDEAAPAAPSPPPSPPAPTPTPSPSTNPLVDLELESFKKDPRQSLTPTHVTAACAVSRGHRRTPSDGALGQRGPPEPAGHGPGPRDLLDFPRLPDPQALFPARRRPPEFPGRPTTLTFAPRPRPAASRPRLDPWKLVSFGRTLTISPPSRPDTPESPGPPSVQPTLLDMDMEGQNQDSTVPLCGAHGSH

CC(C)(C)c1nc(-c2cccc(NS(=O)(=O)c3c(F)cccc3F)c2F)c(-c2ccnc(N)n2)s1 [dabrafenib] was tested, and the “%-inhibition of MLK2” value [1] was 47%, the “%-inhibition of LIMK1” value [2] was 100% and the “%-inhibition of skMLCK” value [3] was 0.52%. The “%-inhibition of DDR2” value [4] was 100%, the “%-inhibition of HIPK1” value [5] was 70% and the “%-inhibition of PHKG1” value [6] was -0.59%.

CCCS(=O)(=O)Nc1ccc(F)c(C(=O)c2c[nH]c3ncc(-c4ccc(Cl)cc4)cc23)c1F [vemurafenib] was tested, and the “%-inhibition of MLK2” value [1] was 5%, the “%-inhibition of RSK1” value [7] was -1.32% and the “%-inhibition of LIMK1” value [2] was 45%. The “%-inhibition of skMLCK” value [3] was 53%, the “%-inhibition of DDR2” value [4] was 69% and the “%-inhibition of HIPK1” value [5] was -4.72%. The “%-inhibition of EPHB4” value [8] was 3.73% and the “%-inhibition of PHKG1” value [6] was -0.913%.

In the case of Cc1nc(Nc2ncc(C(=O)Nc3c(C)cccc3Cl)s2)cc(N2CCN(CCO)CC2)n1 [dasatinib], the “%-inhibition of HIPK1” value [5] is reported as 2.64%.

For C[C@@H](Oc1cc(-c2cnn(C3CCNCC3)c2)cnc1N)c1c(Cl)ccc(F)c1Cl [crizotinib], the “%-inhibition of MLK2” value [1] was 4.7%, the “%-inhibition of RSK1” value [7] was -5% and the “%-inhibition of LIMK1” value [2] was 94%. For the same compound, the “%-inhibition of DDR2” value [4] was 88%, the “%-inhibition of HIPK1” value [5] was -7% and the “%-inhibition of EPHB4” value [8] was 83%. The “%-inhibition of PHKG1” value [6] was 2.74%.

With Cc1ccc(C(=O)Nc2ccc(CN3CCN(C)CC3)c(C(F)(F)F)c2)cc1C#Cc1cnc2cccnn12 [ponatinib] the “%-inhibition of MLK2” value [1] was 39%, the “%-inhibition of RSK1” value [7] was 32% and the “%-inhibition of LIMK1” value [2] was 68%. For the same compound, the “%-inhibition of skMLCK” value [3] was 36%, the “%-inhibition of DDR2” value [4] was 101% and the “%-inhibition of HIPK1” value [5] was 22%. The “%-inhibition of EPHB4” value [8] was 101% and the “%-inhibition of PHKG1” value [6] was 5%.

O=S(=O)(c1cccc2cnccc12)N1CCCNCC1 [fasudil] was tested, and the “%-inhibition of MLK2” value [1] was -10%, the “%-inhibition of LIMK1” value [2] was -7% and the “%-inhibition of skMLCK” value [3] was -1.56%. The “%-inhibition of DDR2” value [4] was 0.102%, the “%-inhibition of HIPK1” value [5] was -3.31% and the “%-inhibition of EPHB4” value [8] was -5.34%. For the same compound, the “%-inhibition of PHKG1” value [6] was 2.6%.

For COc1cc(Nc2c(C#N)cnc3cc(OCCCN4CCN(C)CC4)c(OC)cc23)c(Cl)cc1Cl [bosutinib], the “%-inhibition of MLK2” value [1] was 58%, the “%-inhibition of LIMK1” value [2] was -7% and the “%-inhibition of skMLCK” value [3] was 71%. The “%-inhibition of DDR2” value [4] was 96%, the “%-inhibition of HIPK1” value [5] was 3.32% and the “%-inhibition of EPHB4” value [8] was 96%. The “%-inhibition of PHKG1” value [6] was 49%.

CO[C@H]1C[C@@H]2CC[C@@H](C)[C@@](O)(O2)C(=O)C(=O)N2CCCC[C@H]2C(=O)O[C@H]([C@H](C)C[C@@H]2CC[C@@H](OCCO)[C@H](OC)C2)CC(=O)[C@H](C)/C=C(\C)[C@@H](O)[C@@H](OC)C(=O)[C@H](C)C[C@H](C)/C=C/C=C/C=C/1C [everolimus] was tested, and the “%-inhibition of MLK2” value [1] was 4%, the “%-inhibition of RSK1” value [7] was -13% and the “%-inhibition of LIMK1” value [2] was 3.28%. For the same compound, the “%-inhibition of skMLCK” value [3] was -8%, the “%-inhibition of DDR2” value [4] was 0% and the “%-inhibition of HIPK1” value [5] was -6%. For the same compound, the “%-inhibition of EPHB4” value [8] was -4.49% and the “%-inhibition of PHKG1” value [6] was 0.522%.

Cc1ccc(Nc2nccc(N(C)c3ccc4c(C)n(C)nc4c3)n2)cc1S(N)(=O)=O [pazopanib] was tested, and the “%-inhibition of MLK2” value [1] was 18%, the “%-inhibition of RSK1” value [7] was 16% and the “%-inhibition of DDR2” value [4] was 96%. For the same compound, the “%-inhibition of HIPK1” value [5] was 10%, the “%-inhibition of EPHB4” value [8] was 16% and the “%-inhibition of PHKG1” value [6] was 1.52%.

For CCN(CC)CCNC(=O)c1c(C)[nH]c(/C=C2\C(=O)Nc3ccc(F)cc32)c1C [sunitinib], the “%-inhibition of skMLCK” value [3] was 91%, the “%-inhibition of HIPK1” value [5] was 79% and the “%-inhibition of PHKG1” value [6] was 95%.

With CS(=O)(=O)CCNCc1ccc(-c2ccc3ncnc(Nc4ccc(OCc5cccc(F)c5)c(Cl)c4)c3c2)o1 [lapatinib] the “%-inhibition of MLK2” value [1] was 1.78%, the “%-inhibition of RSK1” value [7] was 2.59% and the “%-inhibition of LIMK1” value [2] was -2.33%. For the same compound, the “%-inhibition of skMLCK” value [3] was 2.11%, the “%-inhibition of DDR2” value [4] was 83% and the “%-inhibition of EPHB4” value [8] was -0.865%. The “%-inhibition of PHKG1” value [6] was 4.72%.

With COc1cc2c(Nc3ccc(Br)cc3F)ncnc2cc1OCC1CCN(C)CC1 [vandetanib] the “%-inhibition of MLK2” value [1] was 12%, the “%-inhibition of LIMK1” value [2] was 12% and the “%-inhibition of skMLCK” value [3] was 13%. For the same compound, the “%-inhibition of DDR2” value [4] was 101%, the “%-inhibition of HIPK1” value [5] was -8% and the “%-inhibition of PHKG1” value [6] was 68%.
